The values that follow come from ChEMBL document CHEMBL1136726, “Synthesis and characterization of iodine-123 labeled 2beta-carbomethoxy-3beta-(4'-((Z)-2-iodoethenyl)phenyl)nortropane. A ligand for in vivo imaging of serotonin transporters by single-photon-emission tomography” (J Med Chem, 2003).

In general, IC50 refers to the midpoint of a concentration-inhibition curve. Read a high IC50 as weaker potency in that assay. One may read the Ki as the dissociation constant of the complex between target and ligand, obtained from inhibition or displacement.

Assay [1] addresses T1, Sodium-dependent serotonin transporter (Homo sapiens, UniProt P31645). The assay can be described thus: Binding affinity towards serotonin transporter (SERT) by using [3H]paroxetine as radioligand.
The target in assay [2] is T1, Sodium-dependent serotonin transporter. The assay can be described thus: In vitro competitive binding versus [3H]-citalopram in murine kidney cells transfected with cDNA for human serotonin transporter (SERT). Format: cell-based.
The target of assay [3] is Sodium-dependent noradrenaline transporter (Homo sapiens, UniProt P23975). Kind of assay: In vitro competitive binding versus [3H]- […] in murine kidney cells transfected with cDNA for human norepinephrine transporter (NET). Format: cell-based.
Sodium-dependent noradrenaline transporter, sequence (P23975 whole entry): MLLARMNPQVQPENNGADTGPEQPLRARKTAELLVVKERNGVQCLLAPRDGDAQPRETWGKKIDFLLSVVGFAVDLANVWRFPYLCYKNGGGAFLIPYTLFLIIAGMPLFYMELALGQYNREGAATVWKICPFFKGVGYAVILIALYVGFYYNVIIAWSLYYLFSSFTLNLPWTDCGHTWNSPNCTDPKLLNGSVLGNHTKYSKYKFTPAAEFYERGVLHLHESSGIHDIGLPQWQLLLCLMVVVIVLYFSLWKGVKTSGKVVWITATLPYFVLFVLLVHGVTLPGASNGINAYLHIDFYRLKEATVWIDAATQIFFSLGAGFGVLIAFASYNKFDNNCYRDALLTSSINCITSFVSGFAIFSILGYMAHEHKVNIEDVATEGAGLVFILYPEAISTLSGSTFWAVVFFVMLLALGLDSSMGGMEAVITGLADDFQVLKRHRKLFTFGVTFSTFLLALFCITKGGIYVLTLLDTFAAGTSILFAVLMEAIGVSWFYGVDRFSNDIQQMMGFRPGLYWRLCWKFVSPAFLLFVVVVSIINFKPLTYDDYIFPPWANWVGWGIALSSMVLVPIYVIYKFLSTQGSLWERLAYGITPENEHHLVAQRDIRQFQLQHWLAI
Assay [4] addresses T2, Sodium-dependent dopamine transporter (Homo sapiens, UniProt Q01959). The assay can be described thus: In vitro competitive binding versus [N-methyl-3H]WIN-35428 in murine kidney cells transfected with cDNA for human dopamine transporter (DAT). In kind it is cell-based.
The target in assay [5] is T2, Sodium-dependent dopamine transporter. Kind of assay: Binding affinity towards dopamine transporter (DAT) by using [3H]WIN-35428 as radioligand.
For assay [6], the target named is T1, Sodium-dependent serotonin transporter. Kind of assay: Binding affinity towards serotonin transporter (SERT).
Assay [7] shares this target. The assay can be described thus: In vitro competitive binding versus [3H]citalopram in murine kidney cells transfected with cDNA for human serotonin transporter (SERT). Format: cell-based.

T2 sequence (Q01959 whole entry): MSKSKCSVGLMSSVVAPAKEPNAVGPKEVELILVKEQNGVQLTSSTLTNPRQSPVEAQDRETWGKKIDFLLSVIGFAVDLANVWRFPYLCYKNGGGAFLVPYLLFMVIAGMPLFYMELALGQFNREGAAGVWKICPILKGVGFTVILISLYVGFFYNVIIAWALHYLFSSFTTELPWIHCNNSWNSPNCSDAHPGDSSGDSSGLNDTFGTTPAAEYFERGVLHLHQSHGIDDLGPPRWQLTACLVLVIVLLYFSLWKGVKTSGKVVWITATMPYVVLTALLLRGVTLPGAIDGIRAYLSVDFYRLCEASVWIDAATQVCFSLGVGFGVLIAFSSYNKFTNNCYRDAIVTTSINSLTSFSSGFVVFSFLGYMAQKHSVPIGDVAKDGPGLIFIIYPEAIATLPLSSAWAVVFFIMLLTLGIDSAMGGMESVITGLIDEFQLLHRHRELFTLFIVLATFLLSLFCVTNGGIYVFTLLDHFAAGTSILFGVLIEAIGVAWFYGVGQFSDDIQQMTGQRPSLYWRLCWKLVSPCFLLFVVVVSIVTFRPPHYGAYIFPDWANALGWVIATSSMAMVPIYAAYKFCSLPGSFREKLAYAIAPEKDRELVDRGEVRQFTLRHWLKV
T1 sequence (P31645 whole entry): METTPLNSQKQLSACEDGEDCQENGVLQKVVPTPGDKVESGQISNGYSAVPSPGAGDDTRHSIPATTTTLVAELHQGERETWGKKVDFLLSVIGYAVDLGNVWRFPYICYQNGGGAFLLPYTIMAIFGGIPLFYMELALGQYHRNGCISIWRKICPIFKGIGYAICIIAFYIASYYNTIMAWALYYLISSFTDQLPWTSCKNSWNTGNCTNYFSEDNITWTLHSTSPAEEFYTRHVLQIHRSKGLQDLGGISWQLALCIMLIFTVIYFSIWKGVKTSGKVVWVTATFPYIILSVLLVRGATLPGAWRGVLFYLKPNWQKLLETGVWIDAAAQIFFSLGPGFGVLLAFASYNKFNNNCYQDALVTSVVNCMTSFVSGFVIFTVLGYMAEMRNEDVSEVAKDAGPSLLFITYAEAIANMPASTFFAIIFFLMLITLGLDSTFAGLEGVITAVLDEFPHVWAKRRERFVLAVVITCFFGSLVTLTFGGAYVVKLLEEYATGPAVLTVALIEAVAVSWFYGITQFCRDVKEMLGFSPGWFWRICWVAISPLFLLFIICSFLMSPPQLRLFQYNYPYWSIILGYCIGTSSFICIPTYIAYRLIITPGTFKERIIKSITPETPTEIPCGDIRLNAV

`C=C(C)c1ccc([C@H]2CC3CCC(N3)[C@H]2C(=O)CC)cc1` (stereo not given in full): the IC50 in assay [1] came out at 0.16 nM.

Regarding `COC(=O)[C@@H]1C2CCC(C[C@@H]1c1ccc(/C=C/I)cc1)N2` (stereo not given in full), the Ki was 1.15 nM in assay [2], 32 nM in assay [3] and 1.88 nM in assay [4].

For `C/C=C/c1ccc([C@H]2CC3CCC([C@H]2C(=O)OC)N3C)cc1` (stereo not given in full), the IC50 is 1.3 nM in assay [1] and 28 nM in assay [5].

Consider `COC(=O)[C@@H]1C2CC[C@H](C[C@@H]1c1ccc(I)cc1)N2C`, for which the Ki in assay [3] worked out at 1.4 nM; in assay [7], 0.67 nM; in assay [4] it was 0.48 nM. This compound yielded an IC50 in assay [6] of 4.2 nM.

The compound `COC(=O)[C@@H]1C2CCC(C[C@@H]1c1ccc(I)cc1)N2` (stereo not given in full) showed an IC50 in assay [6] of 0.36 nM. Also, the affinity in assay [4], expressed as Ki, was 0.12 nM.

`C=Cc1ccc([C@H]2CC3CCC(N3)[C@H]2C(=O)CC)cc1` (stereo not given in full): the IC50 in assay [1] stood at 0.32 nM.

For the compound `C/C=C\c1ccc([C@H]2CC3CCC([C@H]2C(=O)OC)N3C)cc1` (stereo not given in full), the values for the IC50 in assay [1] and in assay [5] were 1.15 nM and 32 nM, respectively.
